From ChEMBL document CHEMBL4376803, “Recent Advances in the Exploration of Therapeutic Analogues of Gramicidin S, an Old but Still Potent Antimicrobial Peptide” (J Med Chem, 2019)
In brackets after ≈: the same amount, converted by molar mass. Square brackets hold non-standard residues; d marks the D form. Peptide text beside a SMILES is read from it. Orn = NCCC[C@H](N)C(=O)O

How the values were obtained:
Type in all cases: functional
[1] = tested on: Bacillus subtilis; test: Antibacterial activity against Bacillus subtilis CIP 52.65 incubated for 48 hrs; conditions: CIP 52.65, 48 h
[2] = tested on: Pseudomonas aeruginosa; test: Antibacterial activity against Pseudomonas aeruginosa NBRC 3080
[3] = tested on: Staphylococcus aureus; test: Antibacterial activity against Staphylococcus aureus ATCC 29213
[4] = tested on: Candida albicans; test: Antibacterial activity against Candida albicans after overnight incubation by microtiter dilution method
[5] = tested on: Escherichia coli; test: Antibacterial activity against Escherichia coli NBRC 12734 after overnight incubation by microplate dilution method
[6] = tested on: Priestia megaterium; test: Antibacterial activity against Bacillus megaterium ATCC 19213
[7] = tested on: Escherichia coli; test: Antibacterial activity against Escherichia coli ATCC 25922
[8] = tested on: Pseudomonas aeruginosa; test: Antibacterial activity against Pseudomonas aeruginosa ATCC 27853 incubated for 24 hrs; conditions: ATCC 27853, 24 h
[9] = tested on: Staphylococcus epidermidis; test: Antibacterial activity against Staphylococcus epidermidis ATCC 12228 incubated for 24 hrs; conditions: ATCC 12228, 24 h
[10] = tested on: Staphylococcus epidermidis; test: Antibacterial activity against Staphylococcus epidermidis
[11] = tested on: Klebsiella pneumoniae; test: Antibacterial activity against Klebsiella pneumonia K6 ATCC 700603 after overnight incubation by broth microdilution method; conditions: 700603 K6
[12] = tested on: Staphylococcus aureus; test: Antibacterial activity against methicillin-resistant Staphylococcus aureus ATCC 4330
[13] = tested on: Staphylococcus aureus; test: Antibacterial activity against Staphylococcus aureus ATCC 25923 after 22 hrs by double dilution method; conditions: ATCC 25923, 22 h
[14] = tested on: Escherichia coli; test: Antibacterial activity against Escherichia coli ATCC 25922 after 24 hrs; conditions: ATCC 25922, 24 h
[15] = tested on: Staphylococcus epidermidis; test: Antibacterial activity against Staphylococcus epidermidis ATCC 12228 after 22 hrs by double dilution method; conditions: ATCC 12228, 22 h
[16] = tested on: Enterococcus faecalis; test: Antibacterial activity against Enterococcus faecalis ATCC 29212 after overnight incubation by microtiter dilution method
[17] = tested on: Staphylococcus aureus; test: Antibacterial activity against Staphylococcus aureus ATCC 29213 after 24 hrs; conditions: ATCC 29213, 24 h
[18] = tested on: Enterococcus faecalis; test: Antibacterial activity against Enterococcus faecalis 1131 after 24 hrs by broth dilution method; conditions: Enterococcus faecalis, 1131, 24 h
[19] = tested on: Enterococcus faecalis; test: Antibacterial activity against Enterococcus faecalis ATCC 29212 after 24 hrs; conditions: ATCC 29212, 24 h
[20] = tested on: Staphylococcus aureus; test: Antibacterial activity against vancomycin-resistant Staphylococcus aureus Mu50/ATCC 700699 after overnight incubation by broth microdilution method
[21] = tested on: Escherichia coli; test: Antibacterial activity against Escherichia coli ATCC 8739 incubated for 48 hrs; conditions: ATCC 8739, 48 h
[22] = tested on: Priestia megaterium; test: Antibacterial activity against Bacillus megaterium ATCC 19213 after overnight incubation by microplate dilution method
[23] = tested on: Escherichia coli; test: Antibacterial activity against Escherichia coli K-12 strain W3110 incubated for 20 hrs by liquid microdilution method; conditions: K-12 substr. W3110, 20 h
[24] = tested on: Pseudomonas aeruginosa; test: Antibacterial activity against Pseudomonas aeruginosa ATCC 19582 after 24 hrs by broth dilution method; conditions: ATCC 19582, 24 h
[25] = tested on: Staphylococcus aureus; test: Antibacterial activity against Staphylococcus aureus
[26] = tested on: Pseudomonas aeruginosa; test: Antibacterial activity against Pseudomonas aeruginosa H187 after overnight incubation by microtiter dilution method
[27] = tested on: Enterococcus faecalis; test: Antibacterial activity against Enterococcus faecalis ATCC 29212
[28] = tested on: Escherichia coli; test: Antibacterial activity against Escherichia coli ATCC 25922 after 22 hrs by double dilution method; conditions: ATCC 25922, 22 h
[29] = tested on: Staphylococcus aureus; test: Antibacterial activity against Staphylococcus aureus NBRC 12732 after overnight incubation by microplate dilution method
[30] = tested on: Staphylococcus aureus; test: Antibacterial activity against Staphylococcus aureus ATCC 49975 after 16 to 20 hrs by broth microdilution method
[31] = tested on: Staphylococcus aureus; test: Antibacterial activity against Staphylococcus aureus K147 after overnight incubation by microtiter dilution method
[32] = tested on: Staphylococcus aureus; test: Antibacterial activity against methicillin-resistant Staphylococcus aureus NT 1110301981H-T034-PVL+ incubated for 24 hrs
[33] = tested on: Escherichia coli; test: Antibacterial activity against Escherichia coli ATCC 25922 after 24 hrs by broth dilution method; conditions: ATCC 25922, 24 h
[34] = tested on: Staphylococcus aureus; test: Antibacterial activity against Staphylococcus aureus 7323
[35] = tested on: Staphylococcus aureus; test: Antibacterial activity against multidrug-resistant Staphylococcus aureus ATCC BAA-44 after overnight incubation by broth microdilution method
[36] = tested on: Pseudomonas aeruginosa; test: Antibacterial activity against Pseudomonas aeruginosa ATCC 27853
[37] = tested on: Pseudomonas aeruginosa; test: Antibacterial activity against Pseudomonas aeruginosa ATCC 27853 after 22 hrs by double dilution method; conditions: ATCC 27853, 22 h
[38] = tested on: Staphylococcus aureus; test: Antibacterial activity against Staphylococcus aureus NBRC 12732
[39] = tested on: Salmonella; test: Antibacterial activity against Salmonella after overnight incubation by broth microdilution method
[40] = tested on: Bacillus cereus; test: Antibacterial activity against Bacillus cereus ATCC 11778 incubated for 24 hrs; conditions: ATCC 11778, 24 h
[41] = tested on: Staphylococcus aureus; test: Antibacterial activity against Staphylococcus aureus ATCC 6538 incubated for 48 hrs; conditions: ATCC 6538, 48 h
[42] = tested on: Staphylococcus xylosus; test: Antibacterial activity against Staphylococcus xylosus
[43] = tested on: Escherichia coli; test: Antibacterial activity against Escherichia coli UB1005 after overnight incubation by microtiter dilution method
[44] = tested on: Bacillus subtilis; test: Antibacterial activity against Bacillus subtilis NBRC 3513 after overnight incubation by microplate dilution method
[45] = tested on: Escherichia coli; test: Antibacterial activity against Escherichia coli K-12 ATCC 29181 after overnight incubation by broth microdilution method
[46] = tested on: Pseudomonas aeruginosa; test: Antibacterial activity against Pseudomonas aeruginosa ATCC 9027 incubated for 48 hrs; conditions: ATCC 9027, 48 h
[47] = tested on: Escherichia coli; test: Antibacterial activity against Escherichia coli NBRC 12734
[48] = tested on: Staphylococcus epidermidis; test: Antibacterial activity against Staphylococcus epidermidis ATCC 27626 after overnight incubation by broth microdilution method
[49] = tested on: Bacillus subtilis; test: Antibacterial activity against Bacillus subtilis NBRC 3513
[50] = tested on: Staphylococcus aureus; test: Antibacterial activity against Staphylococcus aureus 209P incubated for 20 hrs by liquid microdilution method
[51] = tested on: Pseudomonas aeruginosa; test: Antibacterial activity against Pseudomonas aeruginosa NBRC 3080 after overnight incubation by microplate dilution method
[52] = tested on: Enterococcus faecalis; test: Antibacterial activity against Enterococcus faecalis ATCC 29212 after 22 hrs by double dilution method; conditions: ATCC 29212, 22 h

CC(C)C[C@@H]1NC(=O)[C@H](CCCN)NC(=O)[C@H](C(C)C)NC(=O)[C@@H]2CCCN2C(=O)[C@@H](Cc2ccccc2)NC(=O)[C@H](CC(C)C)NC(=O)[C@H](CCCN)NC(=O)[C@H](C(C)C)NC(=O)[C@@H]2CCCN2C(=O)[C@@H](Cc2ccccc2)NC1=O (cyclo(V[Orn]L[dF]PV[Orn]L[dF]P))
MIC [1]: 1.56 µg/mL (≈ 1.37 µM) | MIC [2]: 25 µg/mL (≈ 21.9 µM) | MIC [3]: 4 µg/mL (≈ 3.5 µM) | MIC [4]: 3.1 µg/mL (≈ 2.72 µM) | MIC [5]: 25 µg/mL (≈ 21.9 µM) | MIC [6]: 3.13 µg/mL (≈ 2.74 µM) | MIC [7]: 32 µg/mL (≈ 28 µM) | MIC [8]: 64 µg/mL (≈ 56.1 µM) | MIC [9]: 8 µg/mL (≈ 7.01 µM) | MIC [10]: 2 µg/mL (≈ 1.75 µM) | MIC [11]: 3.6 µg/mL (≈ 3.15 µM) | MIC [12]: 8 µg/mL (≈ 7.01 µM) | MIC [13]: 4 µg/mL (≈ 3.5 µM) | MIC [14]: 32 µg/mL (≈ 28 µM) | MIC [15]: 2 µg/mL (≈ 1.75 µM) | MIC [16]: 2.8 µg/mL (≈ 2.45 µM) | MIC [17]: 8 µg/mL (≈ 7.01 µM) | MIC [18]: 8 µg/mL (≈ 7.01 µM) | MIC [19]: 8 µg/mL (≈ 7.01 µM) | MIC [20]: 3.6 µg/mL (≈ 3.15 µM) | MIC [21]: 12.5 µg/mL (≈ 11 µM) | MIC [22]: 3.13 µg/mL (≈ 2.74 µM) | MIC [23]: 32 µg/mL (≈ 28 µM) | MIC [24]: 8 µg/mL (≈ 7.01 µM) | MIC [25]: 2 µg/mL (≈ 1.75 µM) | MIC [26]: 20 µg/mL (≈ 17.5 µM) | MIC [27]: 8 µg/mL (≈ 7.01 µM) | MIC [28]: 32 µg/mL (≈ 28 µM) | MIC [29]: 3.13 µg/mL (≈ 2.74 µM) | MIC [30]: 2 µg/mL (≈ 1.75 µM) | MIC [31]: 1.5 µg/mL (≈ 1.31 µM) | MIC [32]: 8 µg/mL (≈ 7.01 µM) | MIC [33]: 32 µg/mL (≈ 28 µM) | MIC [34]: 8 µg/mL (≈ 7.01 µM) | MIC [35]: 1.8 µg/mL (≈ 1.58 µM) | MIC [36]: 64 µg/mL (≈ 56.1 µM) | MIC [37]: 64 µg/mL (≈ 56.1 µM) | MIC [38]: 3.13 µg/mL (≈ 2.74 µM) | MIC [39]: 28 µg/mL (≈ 24.5 µM) | MIC [40]: 8 µg/mL (≈ 7.01 µM) | MIC [41]: 3.12 µg/mL (≈ 2.74 µM) | MIC [42]: 1 µg/mL (≈ 0.876 µM) | MIC [43]: 6.2 µg/mL (≈ 5.43 µM) | MIC [44]: 3.13 µg/mL (≈ 2.74 µM) | MIC [45]: 28 µg/mL (≈ 24.5 µM) | MIC [46]: 50 µg/mL (≈ 43.8 µM) | MIC [47]: 25 µg/mL (≈ 21.9 µM) | MIC [48]: 1.8 µg/mL (≈ 1.58 µM) | MIC [49]: 3.13 µg/mL (≈ 2.74 µM) | MIC [50]: 4 µg/mL (≈ 3.5 µM) | MIC [51]: 25 µg/mL (≈ 21.9 µM) | MIC [52]: 8 µg/mL (≈ 7.01 µM)
